# Results reported in publication PMC3483115 (The Journal of General Physiology, 2012).
# Ends that are not written are not given here. MBP = maltose-binding protein (N-terminal fusion)
# How the values were obtained:
# TRPV1 K155A [1] = assay type: cell-based, rat; settings: repeated 1 µM capsaicin, whole cell, extracellular Ca^2+
# TRPV1 K155A [2] = settings: ref Lishko et al., 2007; cited from earlier work
# Ca^2+–CaM [3] = molecular target: T1, Ca^2+–CaM (Homo sapiens, UniProt P0DP23); settings: ref Lishko et al., 2007; cited from earlier work
# Ca^2+–CaM [4] = molecular target: T1, Ca^2+–CaM; assay: CaM-agarose pulldown of MBP-fused TRPV1-CT35 peptides; assay type: binding; settings: CaM-agarose pulldown (Fig. S2), pH 7.5, 1 mM CaCl2 or EGTA, 4°C, 1 h
# Ca^2+–CaM [5] = molecular target: T1, Ca^2+–CaM; assay: SEC-based comparison of Ca^2+–CaM affinity, TRPV1-ARD vs. TRPV1-CT; assay type: binding; settings: suggested by SEC; affinity could not be measured
# CaM = assay: SEC of TRPV1-CT peptides mixed with CaM; assay type: binding; settings: Superdex 75, in the presence of Ca^2+, data shown for TRPV1-CT44
# TRPV1 = settings: ref Liu et al., 2005, Lishko et al., 2007, Lukacs et al.; cited from earlier work
compound,measurement,setting,value
COc1cc(CNC(=O)CCCC/C=C/C(C)C)ccc1O [capsaicin],"tachyphylaxis and activation kinetics, K155A TRPV1",TRPV1 K155A [1],little tachyphylaxis and slower activation kinetics
same,capsaicin sensitivity of K155A TRPV1,TRPV1 K155A [2],normal capsaicin sensitivity
K155A: TRPV1 with mutation K155A in the TRPV1-ARD,Ca^2+–CaM binding to TRPV1-ARD with mutation,Ca^2+–CaM [3],abolish Ca^2+–CaM binding to TRPV1-ARD
L796P ({MBP}-EGVKRTLSFSLRSGRVSGRNWKNFALVPLPRDAST),Ca^2+–CaM binding of L796P MBP-TRPV1-CT35 (pulldown),Ca^2+–CaM [4],did not significantly disrupt binding of TRPV1-CT35 to Ca^2+–CaM
TRPV1-ARD: N-terminal ankyrin repeat domain of TRPV1 (rat or chicken),affinity of TRPV1-ARD for Ca^2+–CaM relative to TRPV1-CT,Ca^2+–CaM [5],the affinity is likely significantly lower than that of the TRPV1-CT
"TRPV1-CT35: 35-residue CaM-binding peptide from the TRPV1-CT (residues 767–801) (EGVKRTLSFSLRSGRVSGRNWKNFALVPLLRDAST; left off: MBP, N-terminal, cleaved)",shift in elution volume with CaM,CaM,"undergo a large shift in elution volume when mixed with CaM in the presence of Ca^2+, confirming that a complex is formed"
"phosphatidylinositol-4,5-bisphosphate [PIP2]",effect of PIP2 on TRPV1,TRPV1,can also potentiate TRPV1
